Test results as given in patent publication US9868742B2, “Substituted imidazo[1,2-b]pyridazines, substituted imidazo[1,5-b] pyridazines, related compounds, and their use in the treatment of medical disorders” (Lysosomal Therapeutics Inc., priority 2016, dated 2018).

Target: T1, glucocerebrosidase (Gcase) (Homo sapiens, UniProt P04062)
T1 sequence (P04062 40-536): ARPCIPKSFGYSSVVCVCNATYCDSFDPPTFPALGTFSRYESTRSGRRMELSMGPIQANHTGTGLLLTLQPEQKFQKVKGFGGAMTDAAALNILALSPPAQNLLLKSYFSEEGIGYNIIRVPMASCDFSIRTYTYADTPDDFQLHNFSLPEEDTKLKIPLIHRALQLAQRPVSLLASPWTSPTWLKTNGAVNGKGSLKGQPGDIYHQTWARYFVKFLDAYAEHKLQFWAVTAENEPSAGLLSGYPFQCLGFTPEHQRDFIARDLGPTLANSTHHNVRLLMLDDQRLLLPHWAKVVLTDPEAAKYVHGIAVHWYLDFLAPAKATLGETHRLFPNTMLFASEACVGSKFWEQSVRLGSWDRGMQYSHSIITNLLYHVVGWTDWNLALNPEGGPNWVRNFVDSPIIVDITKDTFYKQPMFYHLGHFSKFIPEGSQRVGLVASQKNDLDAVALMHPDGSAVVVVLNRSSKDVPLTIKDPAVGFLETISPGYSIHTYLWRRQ
Assay: Glucocerebrosidase (Gcase) activation assay, 4-methylumbelliferyl-beta-D-glucopyranoside substrate with saposin C
Type: biochemical
Details: 10 nM GCase, 100 nM saposin C, pH 4.7
Experimental: The ability of exemplary compounds to activate glucocerebrosidase (Gcase) was measured.
A 484 μL aliquot of a 1.0 mg/mL solution of phosphatidylserine (PS) (Sigma P7769) in chloroform was evaporated under a stream of nitrogen for 1 hour. The lipid film was dissolved over 4 minutes of vigorous vortexing in 40 mL of 176 mM K2HPO4/50 mM citric acid (pH 4.7) containing 7.5 μL of triton X-100, resulting in a mixed micellar preparation with a composition of 0.32 mM triton and 0.37 mol % PS. 4-Methylumbelliferyl-beta-D-glucopyranoside (ACROS-337025000) was dissolved in the micellar solution to a final concentration of 2 mM for use as the reaction substrate.
Test compounds were diluted to the desired concentrations with dimethylsulfoxide (DMSO) from 10 mM stocks, and 0.41 μL of the DMSO compound mixture was added to 100 μL of micellar solution containing 10 nM GCase and 100 nM saposin C (Enzo ALX-201-262-C050). Pre-incubation was allowed to occur for 30 minutes at room temperature, after which the reaction was initiated by combining 25 μL of substrate solution with 25 μL of compound/GCase/saposin mixture. The reaction proceeded for 15 minutes at room temperature and was stopped by adding 150 μL of 1M glycine, pH 12.5. The endpoint of the reaction was monitored by measuring fluorescence intensity (excitation: 365 nm; emission: 440 nm) on a SpectraMax i3 instrument (Molecular Devices). […]

activation at 0.1 µM (0.1 μM test compound, read-out: Percent Gease Activation 0.1 μM Test Compound): 5 to 20% | activation at 1 µM (1 μM test compound, read-out: Percent Gease Activation 1 μM Test Compound): > 20%
SMILES: CCCCCOC1CCC(NC(=O)c2ncc3c(C)cc(C)nn23)CC1 (centres unmarked)
